Our source for the IC50 and EC50 values is patent publication US20130109682A1, “CYCLIC ETHER COMPOUNDS USEFUL AS KINASE INHIBITORS” (NOVARTIS AG, priority 2010, published 2013).

In one test the target is PIM3 (Homo sapiens, UniProt Q86V86). Briefly: Pim 3 AlphaScreen assay (high ATP). The test is classed as biochemical. The settings on record: read-out: Pim3 IC50. The procedure, abridged: (§1)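 This is a bead-based AlphaScreen run at high ATP (11-125× Km) with biotin-Bad peptide (100 nM in the substrate mix), in 50 mM Hepes pH 7.5, 5 mM MgCl2, 0.05% BSA, 0.01% Tween-20, 1 mM DTT and 2.5% DMSO final. After ~2 h the reaction was stopped with EDTA. Phospho-peptide was detected overnight with anti-phospho Ser/Thr antibody on Protein A and streptavidin beads, giving IC50.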

Test [1] concerns KMS11 (human myeloma cell line). Briefly: Cell proliferation assay (CellTiter-Glo), KMS11. It is filed as cell-based. The note with it: Homo sapiens, KMS-11; KMS11 cells, cell proliferation; read-out: KMS11-Luc EC50. The method, boiled down: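 KMS11 cells in IMDM with 10% FBS and sodium pyruvate, seeded at 2000 cells/well on assay day. Compound added at 2× to equal volume of cells, incubated 3 days at 37° C. Viability read by CellTiter-Glo luminescence; EC50 derived.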

Another test concerns the target PIM1 (Homo sapiens, UniProt P11309). Briefly: Pim 1 AlphaScreen assay (high ATP). The test is classed as biochemical. The note with it: read-out: Pim1 IC50. The procedure, abridged:
as §1

The next test concerns the target PIM2 (Homo sapiens, UniProt Q9P1W9). The test can be described thus: Pim 2 AlphaScreen assay (high ATP). The test is classed as biochemical. The note with it: read-out: Pim2 IC50. The procedure, abridged:
as §1

Another test deals with GSK3β (Homo sapiens, UniProt P49841). The test can be described thus: GSK3β ATP depletion assay. The note with it: ATP depletion assay; read-out: GSK3b IC50. It is filed as biochemical. The method, boiled down:
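Human GSK3β (5 nM) preincubated 15 min with 10 μM biotinylated phospho-CREB peptide in pH 7.5 Tris buffer (15 mM MgCl2, 1 mM DTT, 0.1% BSA, 2.5% DMSO). Reaction started with 2 μM ATP and run to about 50% ATP depletion. Remaining ATP measured by KinaseGlo luminescence.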

Chain of GSK3β (P49841 whole entry, species assumed): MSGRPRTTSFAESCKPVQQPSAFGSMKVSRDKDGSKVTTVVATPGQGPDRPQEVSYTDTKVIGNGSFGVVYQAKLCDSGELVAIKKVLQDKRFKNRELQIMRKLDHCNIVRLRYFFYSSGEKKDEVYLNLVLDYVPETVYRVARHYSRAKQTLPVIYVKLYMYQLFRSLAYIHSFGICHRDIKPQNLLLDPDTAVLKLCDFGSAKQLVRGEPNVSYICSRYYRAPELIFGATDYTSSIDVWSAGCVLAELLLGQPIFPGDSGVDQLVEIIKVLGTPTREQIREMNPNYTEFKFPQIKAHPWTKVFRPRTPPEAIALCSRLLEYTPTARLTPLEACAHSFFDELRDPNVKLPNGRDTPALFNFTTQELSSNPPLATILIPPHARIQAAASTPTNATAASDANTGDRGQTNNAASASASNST
Chain of PIM1 (P11309 whole entry): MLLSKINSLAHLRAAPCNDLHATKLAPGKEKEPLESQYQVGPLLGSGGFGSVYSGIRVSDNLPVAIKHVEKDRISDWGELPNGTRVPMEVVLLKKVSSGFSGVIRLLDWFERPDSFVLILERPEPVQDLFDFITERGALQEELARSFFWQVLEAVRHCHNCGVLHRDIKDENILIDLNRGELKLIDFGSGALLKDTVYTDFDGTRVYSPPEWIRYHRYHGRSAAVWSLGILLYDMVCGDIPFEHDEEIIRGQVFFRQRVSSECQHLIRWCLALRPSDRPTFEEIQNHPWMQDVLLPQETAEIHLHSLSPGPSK
Chain of PIM2 (Q9P1W9 whole entry): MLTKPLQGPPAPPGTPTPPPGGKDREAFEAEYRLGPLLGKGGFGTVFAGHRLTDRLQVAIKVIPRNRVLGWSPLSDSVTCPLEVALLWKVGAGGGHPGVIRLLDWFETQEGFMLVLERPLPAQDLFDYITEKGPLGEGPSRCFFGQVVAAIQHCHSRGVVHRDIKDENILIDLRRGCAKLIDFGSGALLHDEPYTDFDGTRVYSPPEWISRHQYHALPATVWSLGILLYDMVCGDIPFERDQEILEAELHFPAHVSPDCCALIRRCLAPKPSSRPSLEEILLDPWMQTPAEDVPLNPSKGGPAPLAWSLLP

On to `CC(C)[C@@H]1C[C@H](N)CC(c2ccncc2NC(=O)c2ccnc(-c3c(F)cccc3F)n2)O1` (stereo in doubt) [Example 328, N-(4-((2S,4S,6S)-4-amino-6-isopropyltetrahydro-2H-pyran-2-yl)pyridin-3-yl)-2-(2,6-difluorophenyl)pyrimidine-4-carboxamide], for which the IC50 on PIM3 is 172 nM; on PIM1 it was 7 nM; on PIM2, 165 nM. Besides, in test [1], the EC50 is 540 nM.
For `CC(C)(C)[C@H]1O[C@@H](c2ccncc2NC(=O)c2nc(-c3c(F)cccc3F)ncc2N)C[C@@H](N)[C@@H]1O` [Example 260, 5-amino-N-(4-((2R,4R,5S,6R)-4-amino-6-tert-butyl-5-hydroxytetrahydro-2H-pyran-2-yl)pyridin-3-yl)-2-(2,6-difluorophenyl)pyrimidine-4-carboxamide], the IC50 on PIM3 came to 3.6 nM; at GSK3β it was 1040 nM; on PIM1, 0.34 nM; at PIM2, 6 nM.
The corresponding values for `C[C@]1(O)[C@H](N)C[C@H](c2ccncc2NC(=O)c2nc(-c3c(F)cccc3F)c(F)cc2N)O[C@@H]1C1CC1` [Example 261, 3-amino-N-(4-((2R,4R,5S,6R)-4-amino-6-cyclopropyl-5-hydroxy-5-methyltetrahydro-2H-pyran-2-yl)pyridin-3-yl)-6-(2,6-difluorophenyl)-5-fluoropicolinamide] are 1.2 nM, 5520 nM, 0.11 nM and 6.1 nM.
The corresponding values for `C[C@]1(O)[C@H](N)C[C@H](c2ccncc2NC(=O)c2nc(-c3c(F)cccc3F)ncc2N)O[C@@H]1C1CC1` [Example 262, 5-amino-N-(4-((2R,4R,5S,6R)-4-amino-6-cyclopropyl-5-hydroxy-5-methyltetrahydro-2H-pyran-2-yl)pyridin-3-yl)-2-(2,6-difluorophenyl)pyrimidine-4-carboxamide] are 18.1 nM, 2020 nM, 2.15 nM and 18.2 nM.
The like results for `C[C@]1(O)[C@H](N)C[C@H](c2ccncc2NC(=O)c2csc(-c3c(F)cccc3F)n2)O[C@@H]1C1CC1` [Example 263, N-(4-((2R,4R,5S,6R)-4-amino-6-cyclopropyl-5-hydroxy-5-methyltetrahydro-2H-pyran-2-yl)pyridin-3-yl)-2-(2,6-difluorophenyl)thiazole-4-carboxamide] were, in that order, 23.1 nM, 334 nM, 1.26 nM and 72.7 nM.
On to `Cc1cc(F)c(-c2nc(C(=O)Nc3cnccc3[C@H]3C[C@@H](N)[C@](C)(O)[C@@H](C4CC4)O3)ccc2F)c(F)c1` [Example 264, N-(4-((2R,4R,5S,6R)-4-amino-6-cyclopropyl-5-hydroxy-5-methyltetrahydro-2H-pyran-2-yl)pyridin-3-yl)-6-(2,6-difluoro-4-methylphenyl)-5-fluoropicolinamide], for which the IC50 is 2.4 nM at PIM3, 1790 nM on GSK3β, 0.11 nM at PIM1 and 8.1 nM on PIM2.
Regarding `COc1cc(F)c(-c2nc(C(=O)Nc3cnccc3[C@H]3C[C@@H](N)[C@](C)(O)[C@@H](C4CC4)O3)ccc2F)c(F)c1` [Example 265, N-(4-((2R,4R,5S,6R)-4-amino-6-cyclopropyl-5-hydroxy-5-methyltetrahydro-2H-pyran-2-yl)pyridin-3-yl)-6-(2,6-difluoro-4-methoxyphenyl)-5-fluoropicolinamide], the IC50 at PIM3 worked out at 2.3 nM; on GSK3β, 1050 nM; on PIM1, 0.13 nM; at PIM2, 9.6 nM.
For `C[C@@]1(O)[C@@H](N)C[C@@H](c2ccncc2NC(=O)c2ccc(F)c(-c3c(F)cccc3F)n2)OC12CC2` [Example 266, N-(4-((5S,7S,8R)-7-amino-8-hydroxy-8-methyl-4-oxaspiro[2.5]octan-5-yl)pyridin-3-yl)-6-(2,6-difluorophenyl)-5-fluoropicolinamide], the IC50 at PIM3 came to 27.5 nM; on GSK3β it was 6060 nM; on PIM1 it was 1.98 nM; on PIM2 it was 394 nM.
On to `C[C@]1(O)[C@H](N)C[C@H](c2ccncc2NC(=O)c2ccc(F)c(-c3c(F)cccc3F)n2)OC12CC2` [Example 267, N-(4-((5R,7R,8S)-7-amino-8-hydroxy-8-methyl-4-oxaspiro[2.5]octan-5-yl)pyridin-3-yl)-6-(2,6-difluorophenyl)-5-fluoropicolinamide], for which the IC50 at PIM3 is 29.7 nM; on GSK3β it was 6930 nM; at PIM1 it was 2.52 nM; on PIM2, 213 nM.
As for `CC(C)(C)[C@H]1O[C@@H](c2ccncc2NC(=O)c2csc(-c3c(F)cccc3F)n2)C[C@@H](N)[C@@H]1O` [Example 268, N-(4-((2R,4R,5S,6R)-4-amino-6-tert-butyl-5-hydroxytetrahydro-2H-pyran-2-yl)pyridin-3-yl)-2-(2,6-difluorophenyl)thiazole-4-carboxamide], the IC50 on PIM3 came out at 3.6 nM; on GSK3β, 207 nM; on PIM1 it was 0.16 nM; on PIM2, 20.3 nM.
With `COc1cc(F)c(-c2nc(C(=O)Nc3cnccc3[C@H]3C[C@@H](N)[C@H](O)[C@@H](C(C)(C)C)O3)ccc2F)c(F)c1` [Example 269, N-(4-((2R,4R,5S,6R)-4-amino-6-tert-butyl-5-hydroxytetrahydro-2H-pyran-2-yl)pyridin-3-yl)-6-(2,6-difluoro-4-methoxyphenyl)-5-fluoropicolinamide], the IC50 at PIM3 stood at 0.5 nM; on GSK3β, 613 nM; at PIM1 it was 0.03 nM; at PIM2, 2.4 nM.
The corresponding values for `Cc1cc(F)c(-c2nc(C(=O)Nc3cnccc3[C@H]3C[C@@H](N)[C@H](O)[C@@H](C(C)(C)C)O3)ccc2F)c(F)c1` [Example 270, N-(4-((2R,4R,5S,6R)-4-amino-6-tert-butyl-5-hydroxytetrahydro-2H-pyran-2-yl)pyridin-3-yl)-6-(2,6-difluoro-4-methylphenyl)-5-fluoropicolinamide] are 0.5 nM, 1060 nM, 0.03 nM and 3.1 nM.
The corresponding values for `CC(C)[C@H]1O[C@@H](c2ccncc2NC(=O)c2ccc(F)c(-c3c(F)cccc3F)n2)C[C@@H](N)[C@@H]1O` [Example 271, N-(4-((2R,4R,5S,6R)-4-amino-5-hydroxy-6-isopropyltetrahydro-2H-pyran-2-yl)pyridin-3-yl)-6-(2,6-difluorophenyl)-5-fluoropicolinamide] are 2.1 nM, 2750 nM, 0.15 nM and 4.3 nM.
Take `CC(C)[C@H]1O[C@@H](c2ccncc2NC(=O)c2nc(-c3c(F)cccc3F)ncc2N)C[C@@H](N)[C@@H]1O` [Example 272, 5-amino-N-(4-((2R,4R,5S,6R)-4-amino-5-hydroxy-6-isopropyltetrahydro-2H-pyran-2-yl)pyridin-3-yl)-2-(2,6-difluorophenyl)pyrimidine-4-carboxamide]: the IC50 at PIM3 came to 9 nM; on GSK3β, 1220 nM; on PIM1, 0.66 nM; at PIM2 it was 10.9 nM.
With `CC(C)(C)[C@H]1O[C@@H](c2ccncc2NC(=O)c2ccnc(-c3c(F)cccc3F)n2)C[C@@H](N)[C@@H]1O` [Example 277, N-(4-((2R,4R,5S,6R)-4-amino-6-(tert-butyl)-5-hydroxytetrahydro-2H-pyran-2-yl)pyridin-3-yl)-2-(2,6-difluorophenyl)pyrimidine-4-carboxamide], the IC50 on PIM3 is 22.7 nM; on GSK3β, 499 nM; at PIM1 it was 1.05 nM; on PIM2, 27.5 nM.
The like results for `C[C@]1(O)[C@H](N)C[C@H](c2ccncc2NC(=O)c2ccc(F)c(-c3c(F)cccc3F)n2)OC12CC2` [Example 289, N-(4-((5R,7R,8S)-7-amino-8-hydroxy-8-methyl-4-oxaspiro[2.5]octan-5-yl)pyridin-3-yl)-6-(2,6-difluorophenyl)-5-fluoropicolinamide] were, in that order, 29.7 nM, 6930 nM, 2.5 nM and 213 nM.
For the molecule `CC(C)[C@H]1O[C@@H](c2ccncc2NC(=O)c2ccc(F)c(-c3c(F)ccc(C#N)c3F)n2)C[C@@H](N)[C@@H]1O` [Example 329, N-(4-((2R,4R,5S,6R)-4-amino-5-hydroxy-6-isopropyltetrahydro-2H-pyran-2-yl)pyridin-3-yl)-6-(3-cyano-2,6-difluorophenyl)-5-fluoropicolinamide], the IC50 worked out at 14.7 nM on PIM3, 0.7 nM on PIM1 and 14.7 nM on PIM2. In addition, the EC50 in test [1] amounted to 190 nM.
As for `CC(C)[C@H]1O[C@@H](c2ccncc2NC(=O)c2ccc(F)c(-c3ccc(C#N)cc3F)n2)C[C@@H](N)[C@@H]1O` [Example 330, N-(4-((2R,4R,5S,6R)-4-amino-5-hydroxy-6-isopropyltetrahydro-2H-pyran-2-yl)pyridin-3-yl)-6-(4-cyano-2-fluorophenyl)-5-fluoropicolinamide], the IC50 on PIM3 came out at 232 nM; at PIM1, 2 nM; at PIM2, 229 nM. Moreover, in test [1], the EC50 came out at 2430 nM.
